Source: PubChem BioAssay (NCI)
“And” between values parts separate entries of the source, which are not always exact repeats. Identical values can stand only once.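 Tested at 5 concentrations; 48 h exposure; 96-well plates; endpoints linearly interpolated, else capped at highest concentration. GI50 marks 50% less growth. Definition used: TGI = concentration required for complete inhibition of growth.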 Where a SMILES comes first, the peptide text is derived from it. [ ]: non-standard residue; d: D form. ξ: configuration not given here. Pentanoyl(2-O,4-OH,5-Cl) = O=C(O)C(O)CC(O)CCl; Ile(3ξ) = CCC(C)[C@H](N)C(=O)O; NMeV = CN[C@H](C(=O)O)C(C)C; NMeA = CN[C@@H](C)C(=O)O; βAla = NCCC(=O)O

Key:
Test in all cases: inhibition of tumour cell growth, NCI panel, 48 h
OVCAR-4 ovarian = system: OVCAR-4 ovarian
OVCAR-3 ovarian = system: OVCAR-3 ovarian
SF-268 CNS = system: SF-268 CNS
SF-295 CNS = system: SF-295 CNS
SK-MEL-2 melanoma = system: SK-MEL-2 melanoma
OVCAR-5 ovarian = system: OVCAR-5 ovarian
CCRF-CEM leukemia = system: CCRF-CEM leukemia
MCF7 breast = system: MCF7 breast
786-0 renal = system: 786-0 renal
MOLT-4 leukemia = system: MOLT-4 leukemia

Compound | GI50 (OVCAR-4 ovarian) | TGI (OVCAR-4 ovarian) | GI50 (OVCAR-3 ovarian) | TGI (OVCAR-3 ovarian) | GI50 (SF-268 CNS) | TGI (SF-268 CNS) | GI50 (SF-295 CNS) | TGI (SF-295 CNS) | GI50 (SK-MEL-2 melanoma) | TGI (SK-MEL-2 melanoma) | GI50 (OVCAR-5 ovarian) | TGI (OVCAR-5 ovarian) | GI50 (CCRF-CEM leukemia) | TGI (CCRF-CEM leukemia) | GI50 (MCF7 breast) | TGI (MCF7 breast) | GI50 (786-0 renal) | TGI (786-0 renal) | GI50 (MOLT-4 leukemia) | TGI (MOLT-4 leukemia)
C/C(=C1\C(=O)Nc2ccccc21)c1cccc(/C(C)=C2/C(=O)Nc3ccccc32)n1 | 43 µM | > 100 µM | 4.52 µM | 28.2 µM | 7.42 µM | 71.8 µM | 18.5 µM | 85.4 µM | 63.4 µM | > 100 µM | 48.4 µM | > 100 µM | 6.55 µM | > 100 µM | 3.74 µM | > 100 µM | 17.3 µM | 89.6 µM | 6.95 µM | > 100 µM
O=C(c1ccccc1)c1nc2ccc(Cl)cc2cc1C(Br)Br | – | 1.41 µM | – | 0.856 µM | – | 0.972 µM | – | 0.939 µM | – | 1.88 µM | – | 2 µM | – | 7.11 µM | – | 1.96 µM | – | 0.378 µM | – | 11.8 µM
CCC(C)[C@@H]1NC(=O)[C@@H]2CCCN2C(=O)C(CC(O)CCl)OC(=O)CCNC(=O)[C@H](C)N(C)C(=O)[C@H](C(C)C)N(C)C1=O (some centres not stated) (cyclo([Ile(3ξ)][NMeV][NMeA][βAla][Pentanoyl(2-O,4-OH,5-Cl)]P)) | – | > 100 µM | – | > 100 µM | – | > 100 µM | – | 70.4 µM | – | 1.89 µM | – | > 100 µM | – | > 100 µM | – | > 100 µM | – | > 86.2 µM | – | > 100 µM
CCOc1ccc2nc3cc(N)ccc3c(N)c2c1 | 2.3 µM and 3.38 µM | 5.45 µM and 13 µM | 2 µM and 1.91 µM | 7.25 µM and 10.5 µM | 0.385 µM and 0.324 µM | 1.79 µM and 1.68 µM | 2.09 µM and 1.98 µM | 11.9 µM and 11.4 µM | 2.36 µM and 2.22 µM | 6.19 µM and 5.86 µM | 16.2 µM and 12.8 µM | 39 µM and 25.6 µM | 3.43 µM and 4.22 µM | 17.1 µM and 20.9 µM | 2.05 µM and 1.66 µM | 7.75 µM and 5.5 µM | 2.12 µM and 2.37 µM | 10.8 µM and 13.1 µM | 2.99 µM and 3.26 µM | 12.2 µM and 12.4 µM
CC(C)CC(NC(=O)C(O)C(N)Cc1ccccc1)C(=O)O (configuration not stated) | – | > 100 µM | – | > 100 µM | – | > 100 µM | – | > 100 µM | – | > 100 µM | – | > 100 µM | – | > 100 µM | – | > 100 µM | – | > 100 µM | – | > 100 µM
CCCCCOC(=O)c1c(C)[nH]c(/C=C2\N=C(c3ccc[nH]3)C=C2OC)c1C | 0.0559 µM | 2.39 µM | 0.0423 µM | 0.615 µM | 0.0302 µM | 1.87 µM | 0.0966 µM | 0.544 µM | 0.0222 µM | 0.0681 µM | 0.0191 µM | 1.21 µM | 0.0194 µM | 1.99 µM | 0.0451 µM | 1.14 µM | 0.0468 µM | 0.397 µM | 0.0265 µM | 1.43 µM
COc1cccc(C2CC(C)(O)Oc3cc4c(cc32)OCO4)c1 (configuration not stated) | – | > 100 µM | – | 56 µM | – | > 100 µM | – | 95.7 µM | – | 43.6 µM | – | > 100 µM | – | > 100 µM | – | > 100 µM | – | > 100 µM | – | 60.5 µM
COc1cc2c(cc1OCCCCCOc1ccc(-c3nc4ccccc4s3)cc1)N=C[C@@H]1CCCN1C2=O | 3.02 µM | > 76.5 µM | 1.54 µM | > 44 µM | 5.62 µM | 31.6 µM | 2.37 µM | > 100 µM | 4.86 µM | 16.2 µM | 2.74 µM | 19.2 µM | 2.48 µM | > 100 µM | 1.21 µM | 9.77 µM | 1.2 µM | 3.63 µM | 3.5 µM | 20 µM
COc1ccc2c(c1[N+](=O)[O-])CC[C@@H]1[C@@H]2CC[C@]2(C)C(=O)CC[C@@H]12 | 228 µM | – | 631 µM | > 1000 µM | 342 µM | > 1000 µM | 342 µM | > 968 µM | 275 µM | – | > 1000 µM | > 1000 µM | > 1000 µM | – | 998 µM | > 1000 µM | > 25 µM | > 562 µM | > 1000 µM | > 1000 µM
O=C(Nc1ccccc1/C=C/c1n[nH]c2ccccc12)c1ccccc1 | 9.46 µM | 24.7 µM | 5.26 µM | 16.5 µM | 3.75 µM | 17.3 µM | 2.13 µM | 5.57 µM | 5.03 µM | 16.5 µM | 1.92 µM | 12.9 µM | 4.05 µM | 22.3 µM | 0.505 µM | 13.2 µM | 12.6 µM | 26.7 µM | 7.27 µM | 38.2 µM
